Assay results published in US20240246946A1, “MODULATORS OF TREX1” (Constellation Pharmaceuticals, Inc., priority 2021, published 2024).

Columns and labels:
full length human TREX1 = molecular target: T1, full length human TREX1 (Homo sapiens, UniProt Q9NSU2); test: hTREX1 Biochemical Assay (fluorescence, dsDNA substrate degradation); details: biochemical, read-out: hTREX1 IC50
T1 construct: N-terminally His-Tev tagged full length human TREX1; made in house; host or cells: E. coli
T1 sequence (Q9NSU2 1-314): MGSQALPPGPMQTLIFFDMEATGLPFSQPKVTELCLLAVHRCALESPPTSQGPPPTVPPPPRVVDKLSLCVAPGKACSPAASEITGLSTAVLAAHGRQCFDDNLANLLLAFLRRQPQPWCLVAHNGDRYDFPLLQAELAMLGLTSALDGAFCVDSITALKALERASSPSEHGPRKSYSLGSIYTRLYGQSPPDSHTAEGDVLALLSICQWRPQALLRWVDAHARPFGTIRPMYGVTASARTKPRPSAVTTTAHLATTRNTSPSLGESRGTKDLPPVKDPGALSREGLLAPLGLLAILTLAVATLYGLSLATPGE
Protocol: (§1) Degradation of the dsDNA liberates free fluorophore to produce a fluorescent signal. Specifically, 7.5 μL of N-terminally His-Tev tagged full length human TREX1 (expressed in E. coli and purified in house) in reaction buffer (50 mM Tris, 150 mM NaCl, 2 mM DTT, 0.1 mg/mL BSA, 0.01% (w/v) Tween-20, 5 mM MgCl2, pH 7.4) was added to a 384-well Black ProxiPlate Plus (PerkinElmer) which already contained compound (150 nL) at varying concentrations as a 10 point dose-response in DMSO. The plate was incubated at 25° C. for 4 hours. Reactions were initiated by adding 7.5 μL of dsDNA substrate (Strand A: 5′ TEX615/GCT AGG CAG 3′; Strand B: 5′ CTG CCT AGC/IAbRQSp (Integrated DNA Technologies)) in reaction buffer. Final concentrations were 4 pM TREX1, 60 nM dsDNA substrate in reaction buffer with 1.0% DMSO (v/v). After 18 hours at 25° C., reactions were quenched by the addition of 2 μL of 500 mM EDTA.

full length mouse TREX1 = molecular target: T2, full length mouse TREX1 (Mus musculus, UniProt Q91XB0); test: mTREX1 Biochemical Assay (fluorescence, dsDNA substrate degradation); details: biochemical, read-out: mTREX1 IC50
T2 construct: N-terminally His-Tev tagged full length mouse TREX1; made in house; host or cells: E. coli
T2 sequence (Q91XB0 1-314): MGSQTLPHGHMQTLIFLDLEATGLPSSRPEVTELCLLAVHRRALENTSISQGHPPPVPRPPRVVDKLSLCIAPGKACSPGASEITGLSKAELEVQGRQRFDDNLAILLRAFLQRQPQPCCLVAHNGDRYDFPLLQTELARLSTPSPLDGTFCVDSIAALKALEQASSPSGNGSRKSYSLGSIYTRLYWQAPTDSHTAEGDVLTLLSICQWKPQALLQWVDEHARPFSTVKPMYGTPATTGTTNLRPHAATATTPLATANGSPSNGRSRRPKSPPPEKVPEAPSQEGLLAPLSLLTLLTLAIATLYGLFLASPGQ
Protocol: as §1, with “length mouse” for “length human”, “were 6” for “were 4”

| Compound | IC50 (full length human TREX1) [nM] | IC50 (full length mouse TREX1) [nM] |
| --- | --- | --- |
| Cc1nn(C)cc1C(c1cc(F)ccc1C#N)C(C)c1nc(C(=O)Nc2cnoc2)c(O)c(=O)n1C (single isomer, unassigned) [Example 57 D2E2] | > 10 | > 10 |
| CCn1cc(C(c2ccc(F)cc2C#N)C(C)c2nc(C(=O)Nc3cnoc3)c(O)c(=O)n2C)c(C)n1 (single isomer, unassigned) [Example 55 D2E1] | > 10 |  |
| CC(c1nc(C(=O)Nc2cnoc2)c(O)c(=O)n1C)C(c1cnn(C)c1)c1cccnc1C#N (single isomer, unassigned) [Example 7 D2E1] | > 10 | > 10 |
| COC(C)(C)Cn1cc(C(c2ccccc2C#N)C(C)c2nc(C(=O)Nc3cnoc3)c(O)c(=O)n2C)cn1 (single isomer, unassigned) [Example 37 D2E2] | > 10 |  |
| CC(c1nc(C(=O)Nc2cnoc2)c(O)c(=O)n1C)C(c1cnn(CCN2CCN(C(=O)OC(C)(C)C)CC2)c1)c1ccccc1C#N (single isomer, unassigned) [Example 21 D2E2] | > 10 | > 10 |
| CC(c1nc(C(=O)Nc2cnoc2)c(O)c(=O)n1C)C(c1cnn(C)c1)c1ccc(F)cc1Cl (single isomer, unassigned) [Example 74 D1E2] | > 10 |  |
| CC(c1nc(C(=O)Nc2cnoc2)c(O)c(=O)n1C)C(c1cnn(CC(F)(F)F)c1)c1ccccc1C#N (single isomer, unassigned) [Example 22 D1E2] | > 10 | > 10 |
| CC(c1nc(C(=O)Nc2cnoc2)c(O)c(=O)n1C)C(c1cnn(CCN(C)C)c1)c1ccccc1C#N (single isomer, unassigned) [Example 33 D2E2] | > 10 | > 10 |
| [2H]C([2H])([2H])n1cc(C(c2ccccc2C#N)C(C)c2nc(C(=O)Nc3cnoc3)c(O)c(=O)n2C)cn1 (single isomer, unassigned) [Example 76 D1E1] | < 1 |  |
| Cc1ncc(C(c2ccccc2C#N)C(C)c2nc(C(=O)Nc3cnoc3)c(O)c(=O)n2C)cn1 (single isomer, unassigned) [Example 67 D1E1] | > 10 |  |

Second part, the compound after the results:

| IC50 (full length human TREX1) [nM] | IC50 (full length mouse TREX1) [nM] | Compound |
| --- | --- | --- |
| 1 to 10 | 1 to 10 | Cc1ccn(C(c2ccccc2Cl)C(C)c2nc(C(=O)Nc3cnoc3)c(O)c(=O)n2C)n1 (single isomer, unassigned) [Example 49 D1E1] |
| > 10 | > 10 | CC(c1nc(C(=O)Nc2cnoc2)c(O)c(=O)n1C)C(c1cnn(CCN2CCNCC2)c1)c1ccccc1C#N (single isomer, unassigned) [Example 31 D2E2] |
| > 10 | > 10 | CC(c1nc(C(=O)Nc2cnoc2)c(O)c(=O)n1C)C(c1cnn(CCCN(C)C)c1)c1ccccc1C#N (single isomer, unassigned) [Example 34 D1E2] |
| > 10 |  | Cc1cnn(C(c2ccccc2C#N)C(C)c2nc(C(=O)Nc3cnoc3)c(O)c(=O)n2C)c1 (single isomer, unassigned) [Example 47 D1E2] |
| > 10 |  | CC(c1nc(C(=O)Nc2cnoc2)c(O)c(=O)n1C)C(c1cnn(C)c1)c1ccc(F)cc1Cl (single isomer, unassigned) [Example 74 D2E1] |
| < 1 |  | Cc1cnn(C(c2ccccc2C#N)C(C)c2nc(C(=O)Nc3cnoc3)c(O)c(=O)n2C)c1 (single isomer, unassigned) [Example 47 D1E1] |
| < 1 |  | CC(c1nc(C(=O)Nc2cnoc2)c(O)c(=O)n1C)C(c1cnn(C)c1)c1ccc(F)cc1Cl (single isomer, unassigned) [Example 74 D1E1] |
| > 10 |  | Cc1ncc(C(c2ccccc2C#N)C(C)c2nc(C(=O)Nc3cnoc3)c(O)c(=O)n2C)cn1 (single isomer, unassigned) [Example 67 D2E1] |
| > 10 |  | Cc1ncc(C(c2ccccc2C#N)C(C)c2nc(C(=O)Nc3cnoc3)c(O)c(=O)n2C)cn1 (single isomer, unassigned) [Example 67 D2E2] |
| > 10 |  | CC(c1nc(C(=O)Nc2cnoc2)c(O)c(=O)n1C)C(c1cnn(C)c1)c1ccc(F)cc1Cl (single isomer, unassigned) [Example 74 D2E2] |
